# Columns and labels:
# Tg2576 mice = test: Contextual fear conditioning (CS-US pairing) in dementia animal model; format: in vivo; conditions: orally 50 mg/kg per day for 20 days, 6-month old p=0.0264, 12-month old p=0.0028 vs untreated of same age
# From the text: (§1) Tg2576 transgenic mice carry a transgene coding for the 695-amino acid isoform of human APP derived from a large Swedish family with early-onset Alzheimer's disease (AD). These mice express high concentrations of the mutant Aβ, develop significant number of amyloid plaques and display memory deficits.
# Tg2576 transgenic mice carry a transgene coding for the 695-amino acid isoform of human APP derived from a large Swedish family with early-onset Alzheimer's disease (AD). These mice express high concentrations of the mutant Aβ, develop significant number of amyloid plaques and display memory deficits. Tg2576 mice were purchased from The Jackson laboratory (Maine, US). C57BL/6J mice 6-8 week of age were purchased from BioLASCO Taiwan Co., Ltd for dose-dependent effect study. The animals were housed 5 per cage in a temperature (21±1° C.)—and humidity (70±5%)—controlled room, under a 12 h-12 h light-dark cycle (lights on at 6:00 a.m.). Animal had free access to food and water during the experiment. Behavior testing was carried out in the light phase of the cycle. […]
# (§2) All mice were transported to the laboratory for 2 hour before training to erase unnecessary stress. […] The data was recorded and calculated by its system software (TruScan 2.02).
# C57BL/6J mice = test: Contextual fear conditioning (freezing behavioral test) in normal mice; format: in vivo; conditions: normal C57BL/6J mice; 50, 100, 200 mg/kg intraperitoneally once before training; test 24 h after training; dose dependent; *p<0.05, **p<0.01
# From the text: Tg2576 transgenic mice carry a transgene coding for the 695-amino acid isoform of human APP derived from a large Swedish family with early-onset Alzheimer's disease (AD). These mice express high concentrations of the mutant Aβ, develop significant number of amyloid plaques and display memory deficits. Tg2576 mice were purchased from The Jackson laboratory (Maine, US). C57BL/6J mice 6-8 week of age were purchased from BioLASCO Taiwan Co., Ltd for dose-dependent effect study. The animals were housed 5 per cage in a temperature (21±1° C.)—and humidity (70±5%)—controlled room, under a 12 h-12 h light-dark cycle (lights on at 6:00 a.m.). Animal had free access to food and water during the experiment. Behavior testing was carried out in the light phase of the cycle. All animal experiments were carried out in accordance with the guidelines established by the Institutional Animal Care and Utilization Committee of the Taipei Medical University (Taipei, Taiwan, R.O.C.).
# (§3) Compound 1 was dissolved in 5% ethanol, 35% polyethylene glycol and 60% normal saline at a concentration of 15 mg/ml. […]
# as §2
# [1] = test system: apoptotic cells of spinal cord; test: TUNEL staining of apoptosis after spinal cord injury; format: in vivo; conditions: rats after spinal cord injury, 30 mg/Kg per day for 7 days, vs vehicle
# Protocol: (§4) In this example, effects of compounds of this invention were verified using spinal cord injury animal model.
# (§5) The spinal cord injury was produced by using the NYU (New York University) impactor device. The spinal cord contusion was performed under deep anesthesia with Zoleti150 (40 mg/kg i.p.) After a dorsal laminectomy was performed on T9, the spinal cord segments T9 were exposed. Then, the surgery of spinal cord injury was produced by dropping the 10 gram rod from a height of 50 mm.
# as §3
# (§6) On 7th day after hemisection spinal cord injury, animals were deeply anesthetized by isoflurane and perfused through the left ventricle with phosphate-buffered saline (PBS), followed by cold 4% paraformaldehyde in 0.15M sodium phosphate buffer, pH 7.4. […] Furthermore, apoptosis after spinal cord injury was detected by terminal deoxynucleotidyl transferase-mediated deoxyuridine triphosphate nick-end labeling (TUNEL) using the apoptosis detection kit (Oncogene Research Products, Cambridge, Mass.). […] Only cells with clearly visible stain were counted. All data are presented as means±SEM of five consecutive cell quantifications.
# [2] = test system: synaptic plasticity proteins; test: Western blotting of synaptic plasticity proteins in hippocampus of Tg2576 mice; format: in vivo; conditions: oral gavage 50 mg/kg per day for 20 days
# Protocol: as §1
# Compound 1 was dissolved in 5% ethanol, 35% polyethylene glycol and 60% normal saline at a concentration of 15 mg/ml. C57BL/6J Mice were treated with Compound 1 (50, 100, 200 mg/kg, intraperitoneally) or vehicle once before contexual fear conditioning training. Then, Tg2576 transgenic mice were treated with Compound 1 orally (50 mg/kg per day for 20 days) or vehicle at the ages of 5 months and 11 months.
# Animals were deep anesthetized with choral hydrate (400 mg/kg) and perfused with both normal saline and 4% paraformaldehyde. The hippocampus were collected and lysed in lysis buffer (Lysis-M reagent, Roche). The lysates were incubated for 5 min on ice and centrifuged for 20 min at 14,000 r.p.m. and 4° C. The supernatant was collected as cytosolic protein extract. Protein concentrations were measured and normalized using Bradford protein assay kit (Pierce). After normalization, 30 μg of protein was subjected to western blotting. Immunoreactivity was examined by enhanced chemiluminescence (Millipore).
# [3] = test system: NeuN-positive neurons of spinal cord; test: NeuN immunohistochemistry after spinal cord injury; format: in vivo; conditions: rats after spinal cord injury, 30 mg/Kg per day for 7 days, vs vehicle
# Protocol: as §4, §5, §3, §6
# [4] = test system: Sprague-Dawley rats with spinal cord injury; test: BBB Locomotor Rating Scale after spinal cord injury; format: in vivo; conditions: intravenous 30 mg/Kg per day for 7 days, 7 days after spinal cord injury, vs vehicle, p=0.0147
# Protocol: as §4
# Male Sprague-Dawley rats (Academia Sinica, Taiwan), weighing 280-330 g, were kept two per cage for at least five days after their arrival. The rats had access to food and water at libitum and were housed within a room with a 12:12 h dark-light cycle. This study was performed in accordance with the guidelines provided by the Experimental Animal Laboratory and approved by the Animal Care and Use Committee in Taipei Medical University.
# as §5
# Behavioral tests and analyses were performed by observers blinded to the treatments. Locomotor function was observed and recorded using the Basso, Beattie, and Bresnahan (BBB) Locomotor Rating Scale. On days 1, 3, and 7 post injury, hindlimb motor function was assessed using the open-field BBB score locomotor test.
# as §3
# [5] = test system: histone 3 and 4 acetylation, p21 and phospho-ERK; test: Western blot of histone 3 and 4 acetylation, p21 and phospho-ERK after spinal cord injury; format: in vivo, rats; conditions: 100 mg/kg intravenous injection, vs vehicle control
# Protocol: as §4, §5, §3
compound,measurement,setting,value
"O=C(/C=C/c1ccc2c(ccn2S(=O)(=O)c2ccccc2)c1)NO [compound 1, 3-(1-benzensulfonyl-1H-indol-5-yl)-N-hydroxy-acrylamide]",tone-shock pairing memory (contextual fear conditioning),Tg2576 mice,enhanced
same,strength of tone-shock pairing memory (freezing behavioral test),C57BL/6J mice,increased significantly
same,apoptotic cells number (TUNEL),[1]; p=0.0015,significantly reduced
same,apoptotic cells percentage (TUNEL),[1]; p=0.0098,significantly reduced
same,acetyl-Histone H4 expression in hippocampus,[2]; ###p=0.0008,elevated
same,p21 expression in hippocampus,[2]; #p=0.0145,elevated
same,NR2a protein expression in hippocampus,[2]; #p=0.0231,elevated
same,pERK expression in hippocampus,[2]; #p=0.0428,elevated
same,NR2b protein expression in hippocampus,[2]; #p=0.0492,elevated
same,neuron cells percentage (NeuN),[3]; p<0.0001,significantly preserved
same,neuron cells number (NeuN),[3]; p=0.0151,significantly preserved
same,BBB score (motor function),[4],significant recovery
same,expression of histone 4 acetylation (ac-H4),[5]; p=0.0023,Significant increase
same,expression of p21,[5]; p=0.0043,Significant increase
same,expression of phospho-ERK (p-ERK),[5]; p=0.0311,Significant increase
same,expression of histone 3 acetylation (ac-H3),[5]; p=0.0451,Significant increase
